In PubChem BioAssay AID330 (DTP/NCI, 2004) one finds T/C data, which are given here for 25 compounds.

Inconclusive results and toxic doses are left out.

This assay deals with P388 leukemia ip, CD2F1 mice, survival T/C. Description: NCI In Vivo Anticancer Drug Screen. Data for tumor model P388 Leukemia (intraperitoneal) in CD2F1 (CDF1) mice. The note with it: endpoint: median survival time, higher = longer survival. The method, boiled down:
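Mice carrying the transplanted tumor received test compound or vehicle. Survival was recorded in each group, and the value is the treated-group measurement divided by that of the vehicle-treated control group.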

[1] abbreviates: dose: 50.0 mg/kg/injection, schedule: Q01DX005 (ip), vehicle: saline with Tween-80.
Where [2] appears, read: dose: 100.0 mg/kg/injection, schedule: Q01DX005 (ip), vehicle: saline with Tween-80.
Setting [3] is: dose: 200.0 mg/kg/injection, schedule: Q01DX005 (ip), vehicle: saline with Tween-80.
Where [4] appears, read: dose: 100.0 mg/kg/injection, schedule: Q04DX003 (ip), vehicle: saline with Tween-80.
Setting [5] is: dose: 200.0 mg/kg/injection, schedule: Q04DX003 (ip), vehicle: saline with Tween-80.
[6] abbreviates: dose: 50.0 mg/kg/injection, schedule: Q01DX009 (ip), vehicle: Klucel (hydroxypropylcellulose) (HPC).
Where [7] appears, read: dose: 100.0 mg/kg/injection, schedule: Q01DX009 (ip), vehicle: Klucel (hydroxypropylcellulose) (HPC).
Where [8] appears, read: dose: 200.0 mg/kg/injection, schedule: Q01DX009 (ip), vehicle: Klucel (hydroxypropylcellulose) (HPC).
Where [9] appears, read: dose: 60.0 mg/kg/injection, schedule: Q01DX005 (ip), vehicle: saline with Tween-80.
Where [10] appears, read: dose: 120.0 mg/kg/injection, schedule: Q01DX005 (ip), vehicle: saline with Tween-80.
[11] abbreviates: dose: 240.0 mg/kg/injection, schedule: Q01DX005 (ip), vehicle: saline with Tween-80.
The mark [12] stands for this setting: dose: 100.0 mg/kg/injection, schedule: Q01DX009 (ip), vehicle: saline.
The mark [13] stands for this setting: dose: 200.0 mg/kg/injection, schedule: Q01DX009 (ip), vehicle: saline.
[14] abbreviates: dose: 50.0 mg/kg/injection, schedule: Q01DX005 (ip), vehicle: Klucel (hydroxypropylcellulose) (HPC).
The mark [15] stands for this setting: dose: 100.0 mg/kg/injection, schedule: Q01DX005 (ip), vehicle: Klucel (hydroxypropylcellulose) (HPC).
The mark [16] stands for this setting: dose: 200.0 mg/kg/injection, schedule: Q01DX005 (ip), vehicle: Klucel (hydroxypropylcellulose) (HPC).

Take `Cc1nc2sc3c(c2c2ncnn12)CCCC3`: the T/C was 103 % of control under setting [1], 98 % of control under setting [2] and 104 % of control under setting [3].
As to `CCOC(=O)CCCCCO`, the T/C is, setting by setting: (dose: 100.0 mg/kg/injection, schedule: Q01DX001 (ip), vehicle: saline with Tween-80) 104 % of control; (dose: 200.0 mg/kg/injection, schedule: Q01DX001 (ip), vehicle: saline with Tween-80) 104 % of control; (dose: 400.0 mg/kg/injection, schedule: Q01DX001 (ip), vehicle: saline with Tween-80) 106 % of control.
`CCOc1ccc(CO)cc1`: the T/C was 120 % of control under setting [4]; 120 % of control under setting [5]; 120 % of control (dose: 400.0 mg/kg/injection, schedule: Q04DX003 (ip), vehicle: saline with Tween-80).
As for `Nc1nc(SCc2ccccn2)c2[nH]cnc2n1`, where the note is “dose: 66.0 mg/kg/injection, schedule: Q04DX003 (ip), vehicle: Klucel (hydroxypropylcellulose) (HPC)”, the T/C was 122 % of control.
Take `Nc1ccc2oc3ccccc3c2c1`: the T/C was 100 % of control under setting [4] and 103 % of control under setting [5].
Take `CC1(C)N[P+]2(Nc3ccccc3O2)OC1=O` (stereo not drawn): the T/C runs as follows: (dose: 100.0 mg/kg/injection, schedule: Q04DX002 (ip), vehicle: Klucel (hydroxypropylcellulose) (HPC)) 97 % of control; (dose: 200.0 mg/kg/injection, schedule: Q04DX002 (ip), vehicle: Klucel (hydroxypropylcellulose) (HPC)) 93 % of control; (dose: 400.0 mg/kg/injection, schedule: Q04DX002 (ip), vehicle: Klucel (hydroxypropylcellulose) (HPC)) 87 % of control.
Consider `Cc1ccc2nc(N/N=C/c3cccnc3)sc2c1`, for which the T/C is, setting by setting: under setting [6], 105 % of control; under setting [7], 100 % of control; under setting [8], 96 % of control.
On to `CCOc1ccc(NC(=S)NC2OC(COC(C)=O)C(OC(C)=O)C(OC(C)=O)C2OC(C)=O)cc1` (stereo not drawn), for which the T/C was 101 % of control under setting [1], 91 % of control under setting [2] and 92 % of control under setting [3].
For `COc1cc(C(=O)CC(=O)CCC(=O)Nc2ccc(Cl)cc2)ccc1O`, the T/C is 104 % of control under setting [9], 103 % of control under setting [10] and 98 % of control under setting [11].
Consider `CC(Cl)CNCC(C)(C)C` (stereo not drawn), for which the T/C (dose: 50.0 mg/kg/injection, schedule: Q01DX005 (ip), vehicle: saline) is 100 % of control and the T/C (dose: 100.0 mg/kg/injection, schedule: Q01DX005 (ip), vehicle: saline) was 99 % of control.
Consider `CN(C)c1ccc2ccc(=O)[nH]c2c1`, for which the T/C was 95 % of control under setting [1], 108 % of control under setting [2] and 99 % of control under setting [3].
Take `COc1ccc(-c2nnc(N)o2)cc1OC`: the T/C under setting [9] is 107 % of control, the T/C under setting [10] is 98 % of control and the T/C under setting [11] was 103 % of control.
Turning to `O=C1OC(CCCl)CN1Cc1ccccc1` (stereo not drawn), the T/C is, setting by setting: (dose: 50.0 mg/kg/injection, schedule: Q01DX009 (ip), vehicle: saline) 103 % of control; under setting [12], 103 % of control; under setting [13], 98 % of control.
As for `Clc1ccc(N=Cc2ccc(C=Nc3ccc(Cl)c(Cl)c3)cc2)cc1Cl`, the T/C reads like this: (dose: 25.0 mg/kg/injection, schedule: Q01DX009 (ip), vehicle: saline with Tween-80) 103 % of control; (dose: 50.0 mg/kg/injection, schedule: Q01DX009 (ip), vehicle: saline with Tween-80) 90 % of control; (dose: 100.0 mg/kg/injection, schedule: Q01DX009 (ip), vehicle: saline with Tween-80) 88 % of control; (dose: 200.0 mg/kg/injection, schedule: Q01DX009 (ip), vehicle: saline with Tween-80) 94 % of control.
On to `COC(=O)c1cc(-c2ccco2)n2c(NC(=O)Nc3ccc(Cl)cc3)nnc2n1`, for which the T/C runs as follows: under setting [1], 98 % of control; under setting [2], 103 % of control; under setting [3], 95 % of control.
Turning to `Clc1nc(Cl)nc(Nc2ncccn2)n1`, the T/C by setting is: (dose: 60.0 mg/kg/injection, schedule: Q01DX005 (ip), vehicle: Klucel (hydroxypropylcellulose) (HPC)) 100 % of control; (dose: 120.0 mg/kg/injection, schedule: Q01DX005 (ip), vehicle: Klucel (hydroxypropylcellulose) (HPC)) 102 % of control.
Regarding `COc1ccc2c(c1)[C@@]13CCCC[C@H]1[C@@H](C2)[N+](CC1CC1)=CC3=NO`, the T/C was 111 % of control under setting [14], 102 % of control under setting [15] and 105 % of control under setting [16].
The like results for `CC(C)CC(NCCC#N)C(=O)O` (stereo not drawn) were, in that order, 105 % of control, 105 % of control and 108 % of control.
The like results for `CC1(C)OC2OC(/C=N\NC(=O)c3cc4cc(OCc5ccccc5)ccc4[nH]3)C3OC(C)(C)OC3C2O1` (stereo not drawn) were, in that order, 102 % of control, 104 % of control and 102 % of control.
In the case of `CCC(=O)NC(Cc1cccs1)C(=O)O` (stereo not drawn), the T/C is, setting by setting: (dose: 6.25 mg/kg/injection, schedule: Q01DX009 (ip), vehicle: saline) 107 % of control; (dose: 12.5 mg/kg/injection, schedule: Q01DX009 (ip), vehicle: saline) 105 % of control; (dose: 25.0 mg/kg/injection, schedule: Q01DX009 (ip), vehicle: saline) 93 % of control; under setting [12], 88 % of control; under setting [13], 91 % of control.
As for `CC(C)(CBr)COP1(=O)NCC(C)(C)CO1` (stereo not drawn), the T/C is, setting by setting: under setting [14], 106 % of control; under setting [15], 105 % of control; under setting [16], 106 % of control.
For `O=C(Nc1ccccc1Cl)Oc1ccc(Cl)cc1Cl`, the T/C is, setting by setting: under setting [6], 101 % of control; under setting [7], 110 % of control; under setting [8], 106 % of control.
Consider `CC(=O)NCCCCCC(=O)N(C)C`, for which the T/C is 96 % of control under setting [14]; 90 % of control under setting [15]; 98 % of control under setting [16]; 98 % of control (dose: 400.0 mg/kg/injection, schedule: Q01DX005 (ip), vehicle: Klucel (hydroxypropylcellulose) (HPC)).
With `COc1ccc(C(=O)/C(C)=C(/C)N)c(OCc2ccccc2)c1OC`, the T/C is, setting by setting: under setting [14], 104 % of control; under setting [15], 94 % of control; under setting [16], 105 % of control.
Consider `O=C(O)CCNC1=CC(=O)c2ccccc2C1=O`, for which the T/C is 102 % of control under setting [6] and 110 % of control under setting [7].
